The record followed here is publication PMC11090936, “The leukemia inhibitory factor regulates fibroblast growth factor receptor 4 transcription in gastric cancer” (Cellular Oncology, 2023).

Molecules are shown by their SMILES.

The test concerns the target T1, LIFR (leukemia inhibitory factor receptor) (Homo sapiens, UniProt P42702).
T1 construct: with LIF
The test can be described thus: cell-free AlphaScreen, inhibition of LIF/LIFR binding. In general terms: Alpha assays give light when donor and acceptor beads are brought close together.

T1 sequence (P42702 45-1097): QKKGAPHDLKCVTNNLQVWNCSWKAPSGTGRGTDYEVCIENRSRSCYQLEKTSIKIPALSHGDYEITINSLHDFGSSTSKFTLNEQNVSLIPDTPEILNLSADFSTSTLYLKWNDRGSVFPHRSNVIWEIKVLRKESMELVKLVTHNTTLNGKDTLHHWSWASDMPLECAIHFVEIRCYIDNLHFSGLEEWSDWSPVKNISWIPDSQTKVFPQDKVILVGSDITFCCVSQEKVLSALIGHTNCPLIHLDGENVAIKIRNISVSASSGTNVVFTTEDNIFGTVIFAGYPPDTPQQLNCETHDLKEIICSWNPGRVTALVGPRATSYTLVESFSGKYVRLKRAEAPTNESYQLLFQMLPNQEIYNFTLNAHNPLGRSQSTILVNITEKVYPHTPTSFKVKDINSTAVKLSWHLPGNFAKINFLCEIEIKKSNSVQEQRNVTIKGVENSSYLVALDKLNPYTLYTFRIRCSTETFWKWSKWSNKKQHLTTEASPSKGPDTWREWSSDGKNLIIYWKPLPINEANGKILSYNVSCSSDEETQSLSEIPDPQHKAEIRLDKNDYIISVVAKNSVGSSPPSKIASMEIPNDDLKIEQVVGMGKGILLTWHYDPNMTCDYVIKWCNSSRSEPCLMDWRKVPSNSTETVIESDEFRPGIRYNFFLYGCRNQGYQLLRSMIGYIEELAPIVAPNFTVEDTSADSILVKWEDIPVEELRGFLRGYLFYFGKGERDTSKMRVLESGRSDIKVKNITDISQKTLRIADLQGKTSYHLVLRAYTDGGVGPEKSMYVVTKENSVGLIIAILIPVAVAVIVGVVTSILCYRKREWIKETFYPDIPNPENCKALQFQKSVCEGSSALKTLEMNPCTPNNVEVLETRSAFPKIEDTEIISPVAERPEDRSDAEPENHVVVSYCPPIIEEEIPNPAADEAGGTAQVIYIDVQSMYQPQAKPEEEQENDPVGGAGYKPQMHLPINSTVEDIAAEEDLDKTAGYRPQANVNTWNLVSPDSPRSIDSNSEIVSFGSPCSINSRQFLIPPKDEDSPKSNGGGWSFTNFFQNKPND
T1 sequence (P15018 23-202 partner): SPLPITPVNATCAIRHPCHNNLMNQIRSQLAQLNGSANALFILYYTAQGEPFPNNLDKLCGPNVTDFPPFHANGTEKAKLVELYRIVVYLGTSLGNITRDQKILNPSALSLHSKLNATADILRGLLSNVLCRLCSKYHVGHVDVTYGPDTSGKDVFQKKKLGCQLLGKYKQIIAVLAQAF

In the case of `C=CC[C@]1(O)CCC2C3CCC4=CC(=O)CCC4=C3[C@@H](c3ccc(-c4ccccc4)cc3)C[C@@]21C` (stereo partly shown) [LRI-201], the IC50 (commonly the concentration at which inhibition is half-maximal) amounted to 21.9 ± 2.16 µM.
